Test results reported in patent US20020142944A1, “Treatment of ocular disorders” (Erasmus Universiteit Rotterdam, priority 1999, published 2002).

Columns and labels:
[1] = tested on: bilateral cystoid macular edema; assay: Treatment of cystoid macular edema, single patient; format: in vivo, human; conditions: for effect on the edema or visual acuity: previous therapy before octreotide, eye drops / peribulbar injections
Method: One year later, they noticed blurred vision. Their visual acuity was 20/50 in the right eye and 20/40 in the left eye (by Snellen chart). […] Their visual acuity slowly deteriorated in the subsequent years. […] They had no family history of macular edema. […] The injections were stopped four weeks later, because there was no further improvement.
Treatment with 100 μg or octreotide subcutaneously once daily was resumed. […] […] stopped treatment a second time; after four weeks […] visual acuity was 20/70 in the right eye and 20/50 in the left eye. Octreotide therapy was resumed, and four weeks later […] visual acuity was 20/40 in each eye.

[2] = tested on: refractory CME due to chronic uveitis; assay: Octreotide treatment of 10 patients with refractory CME due to chronic uveitis, three months; format: in vivo, human
Method: Patients were treated in accordance to the declaration of Helsinki. In this study, 10 consecutive patients from the Department of Ophthalmology, Erasmus University Medical Center, and the Eye Hospital Rotterdam, were selected because of refractory CME due to chronic uveitis. Since CME in uveitis can be influenced in time by multiple factors, only patients suffering from macular edema for more than 6 months were included, regardless of their immune suppressive treatment. Six patients had bilateral CME and four patients unilateral. Three patients with pars planitis needed no treatment for their inflammation but still had marked CME. Fluorescein angiography was performed within one week before starting octreotide treatment. Octreotide therapy was given after informed consent had been obtained. Dosage was started with 100 μg subcutaneously, on the first day, two times 100 μg on the second day and three times 100 μg from the third day onwards. When possible, the long-acting repeatable (LAR) formulation was prescribed in a dosage of 20 mg per 4 weeks intramuscularly, which became available during the studies. The dose of patient 3, a child, was adjusted for their age to 10 mg per month (im). Immune suppressive treatment was adjusted as based on inflammatory activity. Visual acuity was measured after 2, 4, and 12 weeks of treatment. Fluorescein angiography was repeated after three months of treatment.

[3] = after eight weeks of 100 μg subcutaneously three times daily, before treatment 20/100 in each eye
[4] = four weeks after second stop of treatment
[5] = three months after resuming 100 μg subcutaneously once daily
[6] = within two weeks after first stop of injections
[7] = after three months of treatment
[8] = three months therapy, 10 patients

Q: CC(=O)Nc1nnc(S(N)(=O)=O)s1 [acetazolamide] was tested. Which “effect on the edema or visual acuity” value [1] did it give?
A: without beneficial effect

Q: C[C@H]1C[C@H]2[C@@H]3CCC4=CC(=O)C=C[C@]4(C)[C@@]3(F)[C@@H](O)C[C@]2(C)[C@@]1(O)C(=O)CO [betamehtasone, betamethasone] was tested. Which “effect on the edema or visual acuity” value [1] did it give?
A: without beneficial effect

Q: How did the “effect on the edema or visual acuity” value [1] turn out when O=C(O)Cc1ccccc1Nc1c(Cl)cccc1Cl [diclofenac] was run?
A: without beneficial effect

Q: With CCOC(=O)[C@H](CCc1ccccc1)N[C@@H](C)C(=O)N1CCC[C@H]1C(=O)O [enalapril] as the compound, how does the “effect on the edema or visual acuity” value [1] read?
A: without beneficial effect

Q: C[C@@H](O)[C@@H]1NC(=O)[C@H](CCCCN)NC(=O)[C@@H](Cc2c[nH]c3ccccc23)NC(=O)[C@H](Cc2ccccc2)NC(=O)[C@@H](NC(=O)[C@H](N)Cc2ccccc2)CSSC[C@@H](C(=O)N[C@H](CO)[C@@H](C)O)NC1=O [octreotide] was tested. Which “ophthalmoscopic finding, cystoid lesions” value ([1]; after eight weeks of 100 μg subcutaneously three times daily) did it give?
A: the cysts had dried

Q: What about the “visual acuity in the left eye (Snellen chart)” value [1, 3] of the same compound?
A: 20/50

Q: And the “visual acuity in the right eye (Snellen chart)” value [1, 3]?
A: 20/40

Q: What about the “visual change noted by the patient” value ([1]; after six weeks of 100 μg subcutaneously three times daily) of the same compound?
A: visual improvement

Q: And the “visual acuity in each eye” value ([1]; four weeks after second resumption of therapy)?
A: 20/40

Q: And the “visual acuity in the left eye after stopping treatment” value [1, 4]?
A: 20/50

Q: And the “visual acuity in the right eye after stopping treatment” value [1, 4]?
A: 20/70

Q: What about the fluorescein angiography finding [1, 5] of the same compound?
A: some foveal fluorascein leakage

Q: And the “visual acuity in each eye” value [1, 5]?
A: 20/40

Q: And the “side effects from the treatment” value ([1]; whole course of treatment)?
A: no side effects

Q: And the “ophthalmoscopic finding after stopping treatment” value [1, 6]?
A: some fluid was observed

Q: And the “visual acuity in each eye after stopping treatment” value [1, 6]?
A: 10/50

Q: And the “fluorescein angiographic macular edema clearly diminished” value [2, 7]?
A: 3 eyes

Q: And the “fluorescein angiographic macular edema diminished but still visible” value [2, 7]?
A: 9 eyes

Q: And the “fluorescein angiographic macular edema unaltered” value [2, 7]?
A: 3 eyes

Q: And the ocular hypertension ([2]; at week 4, 10 patients)?
A: one

Q: And the “diarrhoea (only side effect observed)” value ([2]; during the first days of treatment, 10 patients)?
A: 4 patients

Q: What about the “patients in whom visual acuity or inflammation activity deteriorated” value [2, 8] of the same compound?
A: none

Q: What about the “patients with decreased inflammation, leading to tapered immunosuppressive therapy” value [2, 8] of the same compound?
A: Four

Q: And the “CME dissolved by stereoscopic examination” value ([2]; three months therapy, 10 patients, six bilateral and four unilateral CME)?
A: 5 eyes

Q: What about the “CME diminished by stereoscopic examination” value ([2]; three months therapy, further eyes beside those dissolved) of the same compound?
A: 11 eyes
